Type in all cases: cell-based, human
For data set [1], the system named is MEG-01 cells. The experiment in a line: Viability (proliferation) assay, Trypan blue exclusion, MEG-01.
Data set [2] relates to MEG-01 cells. The experiment in a line: Annexin V-FITC and PI apoptosis assay, MEG-01. As for the experimental part: Flow cytometric analysis. Cells were analyzed using a FACSCalibur flow cytofluorometer (Becton-Dickinson), with CellQuestPro ver. 3.3 software. The data was further analyzed with FlowJo ver. 6.2, and WinMDI 2.8 software. Proper gating was performed to characterize each cell population (MEG-01 cells and platelets). The population that corresponds to platelets (small, granulated particles), is PI negative because thrombocytes are anucleated cells (only the viable cells were considered) and were distinguished by their capacity to become activated, undergoing shape change in response to agonist and to show phosphatidylserine (PS) exposure when activated. Platelets were further separated from the megakaryocytic cells, by differential centrifugation, considering the size difference between these cell populations (1-5 μm for platelets and 35-150 μm for megakaryocytic cell line MEG-01) and analyzed separately. Voltage and channels settings were adjusted accordingly. Analyzed values were obtained with WinMDI ver. 2.8.
Apoptosis Assays using Flow Cytometry with Annexin V-FITC and propidium iodide (PI). For induction of typical apoptosis, cells were grown in the presence of 1 μM staurosporine (Sigma-Aldrich) for 6 hours. The staurosporine treated cells were stained as follows: control 1 with PI, control 2 with Annexin V-FITC and control 3 both PI and Annexin V-FITC in order to have the brightest controls for compensation and proper collection of the flow cytometry data. Cell necrosis was induced by heat shock (65° C. for 30 minutes). The stained control, both PI and Annexin V-FITC labeled, was then used as the reference in establishing the level of apoptosis induced by the treatments. Data was collected on logarithmic modes, two-colors. Annexin V-FITC corresponds to FL1 H channel, and PI to FL3H or FL2H channels.
Annexin V-FITC and PI apoptosis assay staining protocol. Apoptosis Annexin V-FITC and PI kit from BD Biosciences, CA, USA, was used. 10^5-10^6 cells were stained with 50 μg/ml PI and with 0.5 μg/ml FITC-labeled Annexin V using the staining protocol provided by the supplier. Samples were then analyzed immediately by flow cytometry.

Data set [3] deals with MEG-01 cells. Kind of data set: Thrombocytopoiesis / proplatelet formation by microscopy. As for the experimental part: Light microscopy (phase contrast) and DAPI fluorescence microscopy. High quality pictures and live imaging were obtained at Cleveland Clinic Imaging Core (Cleveland, Ohio). DAPI staining of cultured MEG-01 cells was performed with fresh cells. For live imaging (observing a single cell for a 24 hour period of time) of the thrombocytopoiesis process, MEG-01 suspension cells were made adherent by using Fibronectin (FN) coated culture dishes. FN was used, at 5 μg/cm^2 and incubated at 37° C. for 1 h, as recommended by the supplier (BD Biosciences, Bedford, Mass., USA).
Scanning electron microscopy (SEM). Cell preparation and pictures were performed at the Microscopy Core Facility (Cleveland Clinic). Cells were grown for 4 days in the presence of 10 μM DMAT and then collected by differential centrifugation. Cells were fixed in glutaraldehyde and then further processed at the Core. The clot was prepared with platelets collected from MEG-01 cultures treated with 10 μM DMAT. Human thrombin 0.5 U/ml for 15 minutes was used to activate them.

Structures are written as SMILES.

Take `CCCCCCCCCCCCCC(=O)O[C@@H]1[C@@H](C)[C@@]2(O)[C@@H](C=C(CO)C[C@]3(O)C(=O)C(C)=C[C@@H]23)[C@@H]2C(C)(C)[C@]12OC(C)=O` [PMA, Phorbol 12-myristate 13-acetate, reference compound]: the “proliferation of MEG-01 cells (Trypan Blue exclusion)” value in the data set on MEG-01 cells [1] (5 nM PMA, five days of treatment) is on record as “a decrease in proliferation was observed”.

`Brc1c(Br)c(Br)c2[nH]nnc2c1Br` [TBB, 4,5,6,7-tetrabromobenzotriazole]: in the data set with MEG-01 cells [2], the “cytotoxicity (necrosis) in MEG-01 cells” value is reported as “without being cytotoxic”. Besides, the “dose and time dependence of induced apoptosis and phenotype change” value in the data set with MEG-01 cells [2] (24 to 96 hours) is “dose and time dependent”. The “cell number / proliferation rate of MEG-01 cells” value in the data set with MEG-01 cells [1] (100 μM TBB, 4 days of treatment) is reported as “maintained a steady number of cells”. Also, in the data set on MEG-01 cells [3], the thrombocytopoiesis result is on record as “induced thrombocytopoiesis”.

For the origin of these results see US20090054507A1, “CONTROL OF MALIGNANT CELLS BY KINASE INHIBITION” (CLEVELAND STATE UNIVERSITY, priority 2006, published 2009).
